Read-outs that look alike come from different tables or passages of the source.
Key:
[1] = test system: patients with non-diabetic kidney disease; conditions: primary result of the DIAMOND trial; cited from earlier work
[2] = clinical; conditions: human, plasma, oral, 10 mg
[3] = patients with type 2 diabetes and chronic kidney disease; model of van der Walt et al.; cited from earlier work
[4] = 10 mg

AUC(0-inf) [2]: 741 ng·h/mL | Vd/F [2]: 44.9 L | Predicted median AUC0–inf ([4]; participants of 50 kg with mGFR 50 mL/min/1.73 m^2): 1100.3 (1016.1–1204.1) ng h/mL | Predicted median AUC0–inf ([4]; participants of 70 kg with mGFR 15 mL/min/1.73 m^2): 1566.1 (1348.4–1855.4) ng h/mL | Predicted median AUC0–inf ([4]; participants of 70 kg with mGFR 90 mL/min/1.73 m^2): 539.2 (483.5–600.4) ng h/mL | Predicted median AUC0–inf ([4]; participants of 150 kg with mGFR 50 mL/min/1.73 m^2): 483.0 (445.5–527.8) ng h/mL
Compound: CCOc1ccc(Cc2cc([C@@H]3O[C@H](CO)[C@@H](O)[C@H](O)[C@H]3O)ccc2Cl)cc1 [dapagliflozin]
Effect on proteinuria in the DIAMOND trial [1]: did not decrease proteinuria | Apparent clearance [3]: approximately 10.5 L/h
